Laboratory results published in patent US20250326753A1, “DUAL CXCR4-BTK INHIBITORS” (X4 Pharmaceuticals, Inc., priority 2022, published 2025).
Like-named read-outs stand apart in the source and are kept apart here.

Key:
TRKC = target: T1, TRKC (Homo sapiens, UniProt Q16288); experiment: PanQinase kinase panel: TRKC; type: biochemical; conditions: read-out: INHIBITORY EFFECT @ 1 uM: TRKC
T1 construct: purchased Reaction Biology Europe GmbH
Procedure: (§1) Screening procedures were performed in accordance with the company's on-line protocol [accessed on-line Mar.
(§2) For each kinase, the median value of the cpm of three wells was defined as “low control” (n=3). This value reflects unspecific binding of radioactivity to the plate in the absence of a protein kinase but in the presence of the substrate. Additionally, for each kinase the median value of the cpm of three other wells was taken as the “high control,” i.e. full activity in the absence of any inhibitor (n=3). The difference between high and low control of each enzyme was taken as 100% activity.
(§3) As part of the data evaluation the low control of each kinase was subtracted from the high control value as well as from their corresponding “compound values”. The residual activity (in %) for each compound well was calculated by using the following formula: Res. Activity (%)=100×[(signal of compound−low control)/(high control−low control)].

TRKB = target: T2, TRKB (Homo sapiens, UniProt Q16620); experiment: PanQinase kinase panel: TRKB; type: biochemical; conditions: read-out: INHIBITORY EFFECT @ 1 uM: TRKB
T2 construct: purchased Reaction Biology Europe GmbH
T2 sequence (Q16620 32-822): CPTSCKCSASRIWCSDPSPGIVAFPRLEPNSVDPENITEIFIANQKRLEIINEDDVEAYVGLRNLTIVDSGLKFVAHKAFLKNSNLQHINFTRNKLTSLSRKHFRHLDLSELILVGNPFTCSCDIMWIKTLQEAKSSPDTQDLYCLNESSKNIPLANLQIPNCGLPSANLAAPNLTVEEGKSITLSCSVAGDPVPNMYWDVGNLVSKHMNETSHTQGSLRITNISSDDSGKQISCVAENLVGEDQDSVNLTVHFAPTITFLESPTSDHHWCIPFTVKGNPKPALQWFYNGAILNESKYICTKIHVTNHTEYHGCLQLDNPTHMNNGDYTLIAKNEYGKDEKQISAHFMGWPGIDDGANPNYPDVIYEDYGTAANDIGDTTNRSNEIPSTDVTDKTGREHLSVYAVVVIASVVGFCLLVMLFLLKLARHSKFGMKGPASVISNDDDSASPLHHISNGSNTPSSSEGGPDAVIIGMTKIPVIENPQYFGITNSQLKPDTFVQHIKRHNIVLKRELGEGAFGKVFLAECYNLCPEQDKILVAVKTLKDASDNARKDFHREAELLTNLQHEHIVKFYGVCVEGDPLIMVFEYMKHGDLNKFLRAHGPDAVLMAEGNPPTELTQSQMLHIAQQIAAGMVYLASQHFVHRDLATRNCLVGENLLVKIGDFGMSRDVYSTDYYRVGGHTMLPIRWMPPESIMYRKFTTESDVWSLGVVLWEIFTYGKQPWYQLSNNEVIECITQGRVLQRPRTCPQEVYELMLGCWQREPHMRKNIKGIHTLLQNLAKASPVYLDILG
Procedure: as §1, §2, §3

LIMK2 = target: T3, LIMK2 (Homo sapiens, UniProt P53671); experiment: PanQinase kinase panel: LIMK2; type: biochemical
T3 construct: purchased Reaction Biology Europe GmbH
T3 sequence (P53671 whole entry): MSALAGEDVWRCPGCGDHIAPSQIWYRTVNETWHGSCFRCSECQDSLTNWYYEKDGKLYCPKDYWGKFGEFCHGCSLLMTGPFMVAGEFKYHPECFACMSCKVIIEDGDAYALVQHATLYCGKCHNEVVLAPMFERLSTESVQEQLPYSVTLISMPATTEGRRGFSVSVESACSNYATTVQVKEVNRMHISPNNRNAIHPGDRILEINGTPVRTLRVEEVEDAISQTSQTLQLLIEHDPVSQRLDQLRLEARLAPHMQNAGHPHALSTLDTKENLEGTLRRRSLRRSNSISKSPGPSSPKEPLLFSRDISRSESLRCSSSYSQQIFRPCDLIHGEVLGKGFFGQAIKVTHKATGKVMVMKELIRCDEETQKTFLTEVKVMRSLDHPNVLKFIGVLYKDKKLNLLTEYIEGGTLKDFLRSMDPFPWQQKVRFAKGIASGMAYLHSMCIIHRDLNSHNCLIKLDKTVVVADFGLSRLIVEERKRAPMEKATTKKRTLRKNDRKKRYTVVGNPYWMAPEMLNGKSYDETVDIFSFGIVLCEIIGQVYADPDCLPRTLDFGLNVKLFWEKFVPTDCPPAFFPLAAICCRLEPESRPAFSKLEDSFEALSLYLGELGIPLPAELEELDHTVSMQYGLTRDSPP
Procedure: as §1, §2, §3

DDR2 = target: T4, DDR2 (Homo sapiens, UniProt Q16832); experiment: PanQinase kinase panel: DDR2; type: biochemical
T4 construct: purchased Reaction Biology Europe GmbH
T4 sequence (Q16832 22-855): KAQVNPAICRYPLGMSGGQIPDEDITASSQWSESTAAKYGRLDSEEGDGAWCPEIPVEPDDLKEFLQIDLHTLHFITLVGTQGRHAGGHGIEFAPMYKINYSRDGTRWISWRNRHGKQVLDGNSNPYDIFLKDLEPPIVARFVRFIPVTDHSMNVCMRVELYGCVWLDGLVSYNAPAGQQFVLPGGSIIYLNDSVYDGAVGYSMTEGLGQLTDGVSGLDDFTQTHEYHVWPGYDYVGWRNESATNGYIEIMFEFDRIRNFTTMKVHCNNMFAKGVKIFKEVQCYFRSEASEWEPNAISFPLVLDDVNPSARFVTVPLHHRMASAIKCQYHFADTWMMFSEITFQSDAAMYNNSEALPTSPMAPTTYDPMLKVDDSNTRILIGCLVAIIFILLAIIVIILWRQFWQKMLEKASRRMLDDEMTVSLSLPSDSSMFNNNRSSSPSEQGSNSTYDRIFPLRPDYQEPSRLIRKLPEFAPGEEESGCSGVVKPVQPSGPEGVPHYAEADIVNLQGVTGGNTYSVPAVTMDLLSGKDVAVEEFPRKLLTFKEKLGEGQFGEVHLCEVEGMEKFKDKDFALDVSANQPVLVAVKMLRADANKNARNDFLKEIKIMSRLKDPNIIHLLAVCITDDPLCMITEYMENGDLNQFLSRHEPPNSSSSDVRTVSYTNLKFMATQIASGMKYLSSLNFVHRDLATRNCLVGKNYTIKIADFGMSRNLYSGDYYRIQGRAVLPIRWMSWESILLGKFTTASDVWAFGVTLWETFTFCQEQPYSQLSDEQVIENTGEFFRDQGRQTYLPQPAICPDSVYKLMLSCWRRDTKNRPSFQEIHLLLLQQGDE
Procedure: as §1, §2, §3

Ramos cell line = Ramos cell line viability assay (CellTiter-Glo, 72 hr); type: cell-based; conditions: Homo sapiens
Procedure: Inhibition of non-Hodgkin lymphoma B-cell proliferation by compounds of the present invention was evaluated in a Ramos cell line. Ramos is a B lymphocyte cell line that was derived from a patient with Burkitt's Lymphoma.
Cell viability was analyzed with the CellTiter-Glo® Luminescent Cell Viability Assay Kit (G7572, Promega), according to the manufacturer's instruction. Cells were seeded into a 96-well/384-well plate and then incubated in 5% CO2 at 37° C. overnight. Compounds were added to the cells, with 9-10 dose points in duplicates in 3-fold dilution from a top concentration of 30 μM, and incubated in 5% CO2 at 37° C. for 72 hr. The 96-well/384-well plate was equilibrated at room temperature for 30 min. 50 μl/25 μl of CellTiter-Glo® Reagent was added to each well and mixed for 2 min on an orbital shaker to induce cell lysis. The 96-well/384-well plate was incubated at room temperature for 10 min to stabilize luminescent signal. Luminescence was detected on a PerkinElmer EnVision Multimode Plate Reader as relative luminescence units (RLU).

U-87 MG = experiment: Glioblastoma multiforme cell proliferation assay (CellTiter Glo), U-87 MG; type: cell-based; conditions: Homo sapiens; for Emax: read-out: GBM-U87MG Cell Proliferation Emax %
Procedure: Inhibition of glioblastoma multiforme cell proliferation by compounds of the present invention was evaluated in U-87 MG (ATCC; Cat. No. HTB-14; Lot. No. 5018014) and T98G (ATCC; Cat. No. CRL-1690; Lot. No. 58267513) cell lines. These are adherent cell lines isolated from glioblastoma multiforme/malignant glioma, which express both CXCR4 and BTK (see Zhou et al. 2002 and Yue et al. 2017).
Cell viability was analyzed with the CellTiter Glo Cell assay kit ([…], Cat. No. G7573, Lot. No. 0000474103), according to the manufacturer's instruction.
U-87 MG and T98G cells were seeded onto 384-well opaque-walled clear bottom plates (Corning, Cat. No. 3765, Lot. No. 34319047) in EMEM (Invitrogen, Cat. No. 11095-080; Lot. No. 2276656) supplemented with 10% FBS (Invitrogen, Cat. No. 10099-141C, Lot. No. 2145169CP), at a seeding density of 1000 or 1200 cells per well, respectively, and then incubated in 5% CO2 at 37° C. overnight.
Compounds were prepared as stock solutions of 30 mM in DMSO (Sigma, Cat. No. 276855-1L. Lot. No. SHBL5610). Compounds were added to the cells, with 10 dose points in duplicates, in 3-fold dilution from a top concentration of 30 μM (final DMSO concentration […]), and incubated in 5% CO2 at 37° C. for 96 hr.
The 384-well plates were equilibrated at room temperature for approximately 30 min. 25 μl of CellTiter-Glo® Reagent was added to each well and mixed for 10 min on an orbital shaker to induce cell lysis. The 384-well plates were incubated at room temperature for 10 min to stabilize luminescent signal. Luminescence was detected on a PerkinElmer EnVision Multimode Plate Reader (measurement time 0.1s) as relative luminescence units (RLU).

[1] = read-out: INHIBITORY EFFECT @ 1 uM: LIMK2
[2] = read-out: INHIBITORY EFFECT @ 1 uM: DDR2
[3] = class, read-out: Ramos viability IC50
[4] = at 1 μM, read-out: inhibition of DDR2
[5] = Table 6A, cell viability, 96 hr, read-out: U-87 MG IC50

T1 sequence (Q16288 32-839): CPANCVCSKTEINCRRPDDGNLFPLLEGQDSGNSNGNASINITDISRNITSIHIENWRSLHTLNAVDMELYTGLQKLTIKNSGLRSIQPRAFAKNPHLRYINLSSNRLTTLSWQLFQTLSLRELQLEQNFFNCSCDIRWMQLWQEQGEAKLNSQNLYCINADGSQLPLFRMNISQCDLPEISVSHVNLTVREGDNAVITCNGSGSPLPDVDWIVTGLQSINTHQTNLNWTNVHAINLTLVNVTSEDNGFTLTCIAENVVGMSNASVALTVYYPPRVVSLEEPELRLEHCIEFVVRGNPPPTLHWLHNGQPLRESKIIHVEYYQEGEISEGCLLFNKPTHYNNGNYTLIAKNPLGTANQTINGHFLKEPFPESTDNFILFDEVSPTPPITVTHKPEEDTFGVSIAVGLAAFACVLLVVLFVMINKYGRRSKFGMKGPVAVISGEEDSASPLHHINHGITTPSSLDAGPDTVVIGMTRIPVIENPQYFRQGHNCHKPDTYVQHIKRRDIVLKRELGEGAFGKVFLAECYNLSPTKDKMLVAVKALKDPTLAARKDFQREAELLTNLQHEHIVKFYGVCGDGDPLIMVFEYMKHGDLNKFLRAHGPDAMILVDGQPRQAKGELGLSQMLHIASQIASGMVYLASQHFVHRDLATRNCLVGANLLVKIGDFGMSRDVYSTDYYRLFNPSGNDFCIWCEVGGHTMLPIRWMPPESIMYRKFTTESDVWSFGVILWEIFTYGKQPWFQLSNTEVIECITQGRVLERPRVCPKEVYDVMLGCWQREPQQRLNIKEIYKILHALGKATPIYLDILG

## COc1ccc(F)cc1C(=O)NCc1ccc(-c2nn([C@@H](C)C(F)(F)F)c(N)c2C(N)=O)cc1 [LOXO-305, pirtobrutinib]
TRKC
  inhibition at 1 µM: 50 to 69%
TRKB
  inhibition at 1 µM: 50 to 69%
LIMK2; [1]
  inhibition at 1 µM: < 50%
DDR2; [2]
  inhibition at 1 µM: < 50%

## C=CC(=O)N1CCC([C@@H]2CCNc3c(C(N)=O)c(-c4ccc(Oc5ccccc5)cc4)nn32)CC1 [Zanubrutinib, (7S)-2-(4-phenoxyphenyl)-7-(1-prop-2-enoylpiperidin-4-yl)-4,5,6,7-tetrahydropyrazolo[1,5-a]pyrimidine-3-carboxamide]
TRKC
  inhibition at 1 µM: < 50%
TRKB
  inhibition at 1 µM: < 50%
LIMK2; [1]
  inhibition at 1 µM: < 50%
DDR2; [2]
  inhibition at 1 µM: < 50%
Ramos cell line; [3]
  IC50: ≥ 4 µM
Ramos cell line; read-out: IC50
  IC50: 11.9 µM

## O=C(c1ccc(Oc2ccccc2)cc1Cl)c1c[nH]c2ncnc(N[C@@H]3CC[C@@H](CO)OC3)c12 [ARQ-531, (2-chloro-4-phenoxyphenyl) (4-(((3R,6S)-6-(hydroxymethyl)tetrahydro-2H-pyran-3-yl)amino)-7H-pyrrolo[2,3-d]pyrimidin-5-yl) methanone]
TRKC
  inhibition at 1 µM: < 50%
TRKB
  inhibition at 1 µM: < 50%
DDR2; [4]
  inhibition at 1 µM: ≥ 50%
DDR2; [2]
  inhibition at 1 µM: 50 to 69%

## Cc1cccnc1[C@H]1CCC[C@@H](c2ncccc2C)N1CCN1CCN(C(=O)c2ccc(-c3cc4c(-c5cccc(NC(=O)c6ccccc6)c5C)ncnc4[nH]3)cc2)CC1 [Compound I-10, N-(3-(6-(4-(4-(2-((2R,6S)-2,6-bis(3-methylpyridin-2-yl)piperidin-1-yl)ethyl)piperazine-1-carbonyl)phenyl)-7H-pyrrolo[2,3-d]pyrimidin-4-yl)-2-methylphenyl)benzamide]
TRKC
  inhibition at 1 µM: < 50%
U-87 MG; Table 6B
  Emax: 101%
U-87 MG; read-out: GBM-U87MG Cell Proliferation IC50 uM
  IC50: 0.76 µM
TRKB
  inhibition at 1 µM: < 50%
LIMK2; at 1 μM, read-out: inhibition of LIMK2
  inhibition at 1 µM: 50 to 89%
LIMK2; [1]
  inhibition at 1 µM: 50 to 69%
DDR2; [4]
  inhibition at 1 µM: 50 to 89%
DDR2; [2]
  inhibition at 1 µM: 70 to 89%
Ramos cell line; [3]
  IC50: 2 to 4 µM
Ramos cell line; read-out: IC50
  IC50: 2.67 µM

## Cc1cccnc1[C@H]1CCC[C@@H](c2ncccc2C)N1CCCCNC(=O)OC[C@@H]1CC[C@@H](Nc2ncnc3[nH]cc(C(=O)c4ccc(Oc5ccccc5)cc4Cl)c23)CO1 [Compound I-18]
U-87 MG; [5]
  IC50: 1.2 µM
Ramos cell line; [3]
  IC50: 1 to 1.5 µM
Ramos cell line; read-out: IC50
  IC50: 1.33 µM

## Cc1cc(-c2ccnc(Nc3cnn(CCN4[C@@H](c5ncccc5C)CCC[C@H]4c4ncccc4C)c3)n2)ccc1CNC(=O)N1CC(OC(C)C)C1 [Compound I-11]
U-87 MG; Table 6B
  Emax: 96%
U-87 MG; Table 6B, read-out: GBM-U87MG Cell Proliferation IC50
  IC50: 0.66 µM

## Cc1cccnc1[C@H]1CCC[C@@H](c2ncccc2C)N1CCCCNC(=O)[C@@H]1CC[C@@H](Nc2ncnc3[nH]cc(C(=O)c4ccc(Oc5ccccc5)cc4Cl)c23)CO1 [Compound I-16]
U-87 MG; [5]
  IC50: 1.3 µM
Ramos cell line; [3]
  IC50: 1 to 1.5 µM
Ramos cell line; read-out: IC50
  IC50: 1.48 µM
